Measured values published in ChEMBL document CHEMBL4033672, “Synthesis and biological evaluation of chemokine receptor ligands with 2-benzazepine scaffold” (Eur J Med Chem, 2017).
Calls of active or inactive are those of the source. The calls are words filed in the database; no cut-off is given here.

Columns and labels:
[1] = biological target: T1, C-C chemokine receptor type 5 (Homo sapiens, UniProt P51681); assay: Positive allosteric modulation of human CCR5 expressed in HEK293T cells co-expressing CAMYEL assessed as increase in CCL4-induced inhibition of forskolin-stimulated cAMP accumulation after 10 mins by BRET assay; format: functional, cell-based, HEK-293T
Target sequence in this assay (P51681 whole entry): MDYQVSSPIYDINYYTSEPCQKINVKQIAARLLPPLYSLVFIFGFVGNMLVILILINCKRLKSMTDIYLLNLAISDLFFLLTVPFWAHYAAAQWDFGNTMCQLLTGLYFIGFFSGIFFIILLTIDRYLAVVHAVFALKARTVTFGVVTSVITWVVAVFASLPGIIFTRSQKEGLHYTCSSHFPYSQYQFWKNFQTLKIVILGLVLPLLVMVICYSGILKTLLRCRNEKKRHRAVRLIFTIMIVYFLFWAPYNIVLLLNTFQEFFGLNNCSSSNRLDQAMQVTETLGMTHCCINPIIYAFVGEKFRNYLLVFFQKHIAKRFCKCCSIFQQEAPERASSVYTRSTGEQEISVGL

[2] = biological target: T2, C-C chemokine receptor type 2 (Homo sapiens, UniProt P41597); assay: Displacement of [3H]INCB3344 from human CCR2 expressed in human U2OS cells at 1 uM after 120 mins by scintillation spectrometric analysis relative to control; format: cell-based
Target sequence in this assay (P41597 whole entry, looked up): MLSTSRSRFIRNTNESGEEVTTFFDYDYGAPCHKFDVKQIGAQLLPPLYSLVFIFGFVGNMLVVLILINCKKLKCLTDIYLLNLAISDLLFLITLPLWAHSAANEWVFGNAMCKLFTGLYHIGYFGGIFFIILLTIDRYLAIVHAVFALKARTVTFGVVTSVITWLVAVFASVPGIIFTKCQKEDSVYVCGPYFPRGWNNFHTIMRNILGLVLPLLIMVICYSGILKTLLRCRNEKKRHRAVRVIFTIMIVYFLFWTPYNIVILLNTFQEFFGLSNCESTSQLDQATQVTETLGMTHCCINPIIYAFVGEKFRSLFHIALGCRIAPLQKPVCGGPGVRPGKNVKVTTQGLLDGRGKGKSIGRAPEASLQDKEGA

[3] = biological target: T1, C-C chemokine receptor type 5; assay: Displacement of [3H]TAK-779 from CCR5 (unknown origin) at 1 uM after 120 mins by scintillation counting method relative to control
Target sequence in this assay (P51681 whole entry, looked up): as the sequence (P51681 whole entry) above

[4] = biological target: T1, C-C chemokine receptor type 5; assay: Positive allosteric modulation of human CCR5 expressed in HEK293T cells co-expressing CAMYEL assessed as increase in CCL5-induced inhibition of forskolin-stimulated cAMP accumulation after 10 mins by BRET assay; format: functional, cell-based; conditions: HEK-293T
Target sequence in this assay (P51681 whole entry, looked up): as the sequence (P51681 whole entry) above

[5] = biological target: T1, C-C chemokine receptor type 5; assay: Intrinsic agonist activity at human CCR5 expressed in HEK293T cells co-expressing CAMYEL assessed as inhibition of forskolin-stimulated cAMP accumulation after 10 mins by BRET assay; format: functional, cell-based; conditions: HEK-293T
Target sequence in this assay (P51681 whole entry, looked up): as the sequence (P51681 whole entry) above

[6] = biological target: T1, C-C chemokine receptor type 5; assay: Displacement of [3H]TAK-779 from CCR5 (unknown origin) after 120 mins by scintillation counting method
Target sequence in this assay (P51681 whole entry): as above

[7] = biological target: T2, C-C chemokine receptor type 2; assay: Displacement of [3H]INCB3344 from human CCR2 expressed in human U2OS cells after 120 mins by scintillation spectrometric analysis; format: cell-based
Target sequence in this assay (P41597 whole entry): as the sequence (P41597 whole entry, looked up) above

[8] = biological target: T1, C-C chemokine receptor type 5; assay: Negative allosteric modulation of human CCR5 expressed in HEK293T cells co-expressing CAMYEL assessed as decrease in CCL4-induced inhibition of forskolin-stimulated cAMP accumulation after 10 mins by BRET assay; format: functional, cell-based; conditions: HEK-293T
Target sequence in this assay (P51681 whole entry, looked up): as the sequence (P51681 whole entry) above

[9] = biological target: T1, C-C chemokine receptor type 5; assay: Negative allosteric modulation of human CCR5 expressed in HEK293T cells co-expressing CAMYEL assessed as decrease in CCL5-induced inhibition of forskolin-stimulated cAMP accumulation after 10 mins by BRET assay; format: functional, cell-based; conditions: HEK-293T
Target sequence in this assay (P51681 whole entry, looked up): as the sequence (P51681 whole entry) above

[10] = biological target: T2, C-C chemokine receptor type 2; assay: Antagonist activity at human CCR2b expressed in human Chem1 cells assessed as inhibition of human recombinant CCL2 induced Ca2+ mobilization preincubated for 10 mins followed by CCL2 induction measured every sec for 120 secs by Fluo-4-AM dye-based fluorescence assay; format: functional, cell-based
Target sequence in this assay (P41597 whole entry): as the sequence (P41597 whole entry, looked up) above

CC(=O)Nc1ccc2c(c1)C(=O)N(CC(C)C)CC(C(=O)Nc1ccc(CN(C)C3CCOCC3)cc1)=C2
EC50 [1]: > 10 nM | inhibition [2]: 15% | inhibition [3]: 0%

CC(C)CN1CC(C(=O)Nc2ccc(CN(C)C3CCOCC3)cc2)=Cc2ccccc2C1=O
EC50 [1]: 2470 nM | Activity [4]: inactive | Activity [5]: inactive | inhibition [2]: 18% | inhibition [3]: 0%

CC(C)CN1CC(C(=O)Nc2ccc(CN(C)C3CCOCC3)cc2)=Cc2c(cccc2[N+](=O)[O-])C1=O
EC50 [1]: > 10 nM | inhibition [2]: 6% | inhibition [3]: 0%

Cc1ccc(-c2ccc3c(c2)C=C(C(=O)Nc2ccc(C[N+](C)(C)C4CCOCC4)cc2)CCC3)cc1
IC50 [6]: 2 nM | EC50 [1]: 7 nM

CC(C)CN1CC(C(=O)Nc2ccc(CN(C)C3CCOCC3)cc2)=Cc2ccc(NS(C)(=O)=O)cc2C1=O
EC50 [1]: > 10 nM | inhibition [2]: 18% | inhibition [3]: 0%

Cc1ccc(-c2ccc3c(c2)C=C(C(=O)Nc2ccc(CN(C)C4CCOCC4)cc2)CN(CC(C)C)C3=O)cc1
IC50 [7]: 387 nM | EC50 [1]: > 10 nM | Activity [8]: Active | Activity [9]: Active | IC50 [10]: 140 nM | inhibition [3]: 0%

Cc1ccc(-c2ccc3c(c2)C(=O)N(CC(C)C)CC(C(=O)Nc2ccc(CN(C)C4CCOCC4)cc2)=C3)cc1
EC50 [1]: > 10 nM | IC50 [10]: 3000 nM | inhibition [2]: 0% | inhibition [3]: 0%

CC(C)CN1CC(C(=O)Nc2ccc(S(=O)(=O)Nc3nccs3)cc2)=Cc2ccccc2C1=O
EC50 [1]: > 10 nM | inhibition [2]: 18% | inhibition [3]: 0%

CC(C)CN1CC(C(=O)Nc2ccc(CN(C)C3CCOCC3)cc2)=Cc2ccc([N+](=O)[O-])cc2C1=O
EC50 [1]: > 10 nM | inhibition [2]: 9% | inhibition [3]: 0%
